According to article PMC5149029, “New Aspects of Silibinin Stereoisomers and their 3-O-galloyl Derivatives on Cytotoxicity and Ceramide Metabolism in Hep G2 hepatocarcinoma Cell Line” (Iranian Journal of Pharmaceutical Research : IJPR, 2016):
Marks after values point to notes of the source that are not given here.

What was measured:
Hep G2 cells = assay: Cell viability, MTT colorimetric assay; type: cell-based; conditions: Hep G2, 48 h
Method: The cell line was grown in RPMI-1640 medium supplemented with L-glutamine 2 mM, HEPESNa 25 mM, penicillin 100 U/mL, streptomycin 100 μg/mL and 10% phosphate-buffered saline (FBS) at 37 °C in a humidified atmosphere containing 5% CO2. Hep G2 cells were seeded at 1 × 10^6 cells/mL and sub cultured every 2–3 days after 60–80% confluence was reached. […] For each experiment, the cells were treated separately with increasing concentrations of silibinin derivatives (0, 25, 50, 75, 100, 125, 150, 175 and 200 μM) and incubated for 48 h.
To measure cell viability, the 3-(4,5-dimethylthiazol-2-yl)-2,5-diphenyl tetrazolium bromide (MTT) colorimetric assay was performed as published ([32], [33]). Briefly, Hep G2 cells were seeded onto 96 flat bottom well plates (50 × 10^3 cells/well) and grown overnight. After the incubation period with silibinin isomers, cells were washed twice with phosphate-buffered saline solution and incubated with MTT solution at a final concentration of 0.5 mg/mL for 3 h and then lysed in dimethyl sulfoxide. Optical density was measured at 540 nm and the background absorbance measured at 660 nm was subtracted. Each experiment was replicated separately for three times.

caspase-3 = assay: Caspase-3 activity, colorimetric substrate Ac-DEVD-pNA; type: cell-based, human; conditions: Hep G2, 48 h, control 0.38
Method: (§1) The cell line was grown in RPMI-1640 medium supplemented with L-glutamine 2 mM, HEPESNa 25 mM, penicillin 100 U/mL, streptomycin 100 μg/mL and 10% […] (FBS) at 37 °C in a humidified atmosphere containing 5% CO2. Hep G2 cells were seeded at 1 × 10^6 cells/mL and sub cultured every 2–3 days after 60–80% confluence was reached. To prepare the lysates cells attached to the culture plate were scraped off with a cell scraper and collected in a 1.5 mL tube by centrifugation. The cell pellets were rinsed with PBS, suspended in sterile water, and then lysed by sonication. For each experiment, the cells were treated separately with increasing concentrations of silibinin derivatives (0, 25, 50, 75, 100, 125, 150, 175 and 200 μM) and incubated for 48 h.
(§2) The activities of caspase-3 and 9 were measured using colorimetric substrates. Cells were added to a lysis buffer (100 mM HEPES [pH 7.5], 0.1% CHAPS, 1 mM PMSF, 10 mM MDTT, 1 mM EDTA) and placed on ice for 30 min. After the cells were centrifuged at 10,000 × g for 10 min at 4 °C, 50 μg of protein from the supernatants was added to each of the caspase substrates. The colorimetric substrates for caspase-3 and 9 were Ac-DEVD-pNA (Asp-Glu-Val-Asp-pNA) and Ac-LEHD-pNA (N-acetyl-Leu-Glu-His-Asp-pNA), respectively. After a 2 h incubation, to measure p-nitroanilide absorbance was determined at 405 nm ([34]).

caspase-9 = assay: Caspase-9 activity, colorimetric substrate Ac-LEHD-pNA; type: cell-based, human; conditions: Hep G2, 48 h, control 0.26
Method: as §1, §2

Acid ceramidase (ACDase) = molecular target: T1, Acid ceramidase (ACDase) (Homo sapiens, UniProt Q13510); assay: ACDase activity assay (fluorogenic); type: cell-based; conditions: for ACDase activity in cell extract compared to control: Hep G2, 125 µM and higher concentrations
T1 construct: endogenous in cells; host or cells: Hep G2
T1 sequence (Q13510 22-395): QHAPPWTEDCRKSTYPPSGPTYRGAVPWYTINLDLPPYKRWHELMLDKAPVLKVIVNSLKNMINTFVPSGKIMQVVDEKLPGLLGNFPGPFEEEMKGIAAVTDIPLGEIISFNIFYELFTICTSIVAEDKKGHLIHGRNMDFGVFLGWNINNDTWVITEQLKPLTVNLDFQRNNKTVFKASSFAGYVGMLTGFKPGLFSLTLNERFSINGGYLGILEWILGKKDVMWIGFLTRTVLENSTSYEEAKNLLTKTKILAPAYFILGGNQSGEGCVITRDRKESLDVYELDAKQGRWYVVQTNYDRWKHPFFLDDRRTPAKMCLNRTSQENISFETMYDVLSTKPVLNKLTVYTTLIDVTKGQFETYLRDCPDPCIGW
Method: as §1
ACDase activity was measured in intact cells and in cell lysates by fluorogenic assays. For intact cell assays, cells (10,000/well) were seeded into 96-well plates in 10% FBS medium. After 24 h, medium was removed and replaced with 5% FBS medium containing indicated concentrations of silibinin derivatives (controls contained ethanol vehicle). Plates were placed in a tissue culture incubator at 37 °C, 5% CO2 for 24 h and cell viability assays were conducted in parallel. Fluorogenic substrate (ethanol vehicle) was then added to a final concentration of 16μM (125 μL final well volume), and the plates were incubated for 3 h at 37 °C, 5% CO2. To complete the assays, 50 μL methanol and 100 μL NaIO4 (2.5 mg/mL) in 0.1 M glycine buffer with a pH of 10.6 were added and the plates were incubated in a dark place for 2 h at 37 °C. Fluorescence was measured in the UV range (365 nm excitation/410–460 nm emission) using a GloMax® multi-detection system (Promega, Madison, WI).
To measure ACDase activity in cell lysates, cells were harvested using trypsin/EDTA, washed three times in ice-cold PBS and re-suspended at a concentration of 1 × 10^6 cells/mL in 0.2 M sucrose. After sonication on ice (microtip, 5–10 s), lysates were centrifuged at 20,000 × g at 4 °C for 15 min to remove debris. Protein in the supernatant was measured using the BCA assay (Pierce Products, Thermo Scientific, Rockford, IL) and bovine serum albumin standard curves. Supernatant protein (60 μg) was added to 96-well plates containing the indicated compounds and sodium acetate–acetic acid buffer, pH 4.5 (25 mM), and incubated for 1 h at 37 °C, in final well volume of 100 μL. Fluorescent substrate was added to a final concentration of 40 μM (125 μL total well volume), and the assay was incubated in the dark at 37 °C for 3 h. Fluorescence was then measured as described above ([23]).

[1] = system: Neutral sphingomyelinase (NSMase); assay: NSMase activity assay (Amplex Red kit); type: cell-based, human; conditions: Hep G2, 125 µM and higher concentrations
Method: as §1
Amplex™ Red NSMase Assay Kit (AAT Bioquest®, Inc. product no: 13620) was used to determine NSMases activity. The kit uses Amplite™ Red as a colorimetric probe to indirectly quantify the phosphocholine produced from the hydrolysis of sphingomyelin by NSMase.
Cells were washed with ice cold PBS and homogenized in neutral lysis buffer (20 mM Tris–HCl pH 7.4, 2 mM EDTA, 5 mM EGTA, 1 mM PMSF, 1% protein cocktail inhibitor and 1 mM sodium orthovanadate) for NSMase assays. Samples were kept on ice 15 min and centrifuged at 14,000 × g for 20 min at 4 °C. 100 µL of each supernatant fraction were incubated at 37 °C for 1hour with working solution. The fluorescence count of produced resorophine in the previous step was measured with a fluorescence micro plate reader by using excitation at 540 nm and emission at 590 nm ([36]).

SMILES	Cell viability (% of control) (Hep G2 cells; 25 micro molar)	Cell viability (% of control) (Hep G2 cells; 50 micro molar)	Cell viability (% of control) (Hep G2 cells; 75 micro molar)	Cell viability (% of control) (Hep G2 cells; 100 micro molar)	Cell viability (% of control) (Hep G2 cells; 125 micro molar)	Cell viability (% of control) (Hep G2 cells; 150 micro molar)	Cell viability (% of control) (Hep G2 cells; 175 micro molar)	Cell viability (% of control) (Hep G2 cells; 200 micro molar)	Caspase-3 (ΔOD 405nm) (caspase-3; 25 micro molar)	Caspase-3 (ΔOD 405nm) (caspase-3; 50 micro molar)	Caspase-3 (ΔOD 405nm) (caspase-3; 75 micro molar)	Caspase-3 (ΔOD 405nm) (caspase-3; 100 micro molar)	Caspase-3 (ΔOD 405nm) (caspase-3; 125 micro molar)	Caspase-3 (ΔOD 405nm) (caspase-3; 150 micro molar)	Caspase-3 (ΔOD 405nm) (caspase-3; 175 micro molar)	Caspase-3 (ΔOD 405nm) (caspase-3; 200 micro molar)	Caspase-9 (ΔOD 405nm) (caspase-9; 25 micro molar)	Caspase-9 (ΔOD 405nm) (caspase-9; 50 micro molar)	Caspase-9 (ΔOD 405nm) (caspase-9; 75 micro molar)	Caspase-9 (ΔOD 405nm) (caspase-9; 100 micro molar)	other results
COc1cc([C@H]2Oc3cc([C@H]4Oc5cc(O)cc(O)c5C(=O)[C@@H]4O)ccc3O[C@@H]2CO)ccc1O [SA, silybin A]	97 + 10.0 % of control	95 + 10.3 % of control	89 + 11.4 % of control	83 + 9.5 % of control	71 + 8.3^* % of control	63 + 7.4^* % of control	52 + 6.0^* % of control	47 + 5.5^* % of control	0.45 ± 0.055 ΔOD 405nm	0.58 ± 0.080 ΔOD 405nm	0.65 ± 0.098 ΔOD 405nm	0.79 ± 0.107 ΔOD 405nm	0.91 ± 0.133 ΔOD 405nm	0.98 ± 0.148 ΔOD 405nm	1.12 ± 0.164 ΔOD 405nm	1.06 ± 0.152 ΔOD 405nm	0.41 ± 0.060 ΔOD 405nm	0.50 ± 0.089 ΔOD 405nm	0.61 ± 0.102 ΔOD 405nm	0.73 ± 0.110 ΔOD 405nm	Caspase-9 (ΔOD 405nm) (caspase-9; 125 micro molar): 0.84 ± 0.133 ΔOD 405nm; Caspase-9 (ΔOD 405nm) (caspase-9; 150 micro molar): 0.96 ± 0.143 ΔOD 405nm; Caspase-9 (ΔOD 405nm) (caspase-9; 175 micro molar): 1.10 ± 0.164 ΔOD 405nm; Caspase-9 (ΔOD 405nm) (caspase-9; 200 micro molar): 1.16 ± 0.147 ΔOD 405nm; ACDase activity, effect of cell exposure (Acid ceramidase (ACDase); Hep G2, throughout the concentration range (0-200 µM)): could not alter ACDase activity; inhibition at 200 µM (Acid ceramidase (ACDase); HepG2, Hep G2 cell extract, 200 µM): 18%; NSMase activity in comparison with control [1]: considerable increase
COc1cc([C@@H]2Oc3cc([C@H]4Oc5cc(O)cc(O)c5C(=O)[C@@H]4O)ccc3O[C@H]2CO)ccc1O [SB, silybin B]	94 + 10.3 % of control	89 + 10.5 % of control	81 + 10.7^* % of control	70 + 10.0^* % of control	60 + 7.9^* % of control	51 + 7.6^* % of control	45 + 5.1^* % of control	40 + 6.0^* % of control	0.34 ± 0.050 ΔOD 405nm	0.45 ± 0.060 ΔOD 405nm	0.58 ± 0.076 ΔOD 405nm	0.53 ± 0.065 ΔOD 405nm	0.62 ± 0.095 ΔOD 405nm	0.73 ± 0.105 ΔOD 405nm	0.82 ± 0.130 ΔOD 405nm	0.79 ± 0.096 ΔOD 405nm	0.30 ± 0.048 ΔOD 405nm	0.41 ± 0.055 ΔOD 405nm	0.47 ± 0.070 ΔOD 405nm	0.56 ± 0.067 ΔOD 405nm	Caspase-9 (ΔOD 405nm) (caspase-9; 125 micro molar): 0.60 ± 0.083 ΔOD 405nm; Caspase-9 (ΔOD 405nm) (caspase-9; 150 micro molar): 0.67 ± 0.105 ΔOD 405nm; Caspase-9 (ΔOD 405nm) (caspase-9; 175 micro molar): 0.81 ± 0.126 ΔOD 405nm; Caspase-9 (ΔOD 405nm) (caspase-9; 200 micro molar): 0.89 ± 0.114 ΔOD 405nm; ACDase activity in cell extract compared to control (Acid ceramidase (ACDase)): markedly inhibited; NSMase activity in comparison with control [1]: considerable increase
COc1cc([C@H]2Oc3cc([C@H]4Oc5cc(O)cc(O)c5C(=O)[C@@H]4OC(=O)c4cc(O)c(O)c(O)c4)ccc3O[C@@H]2CO)ccc1O [SGA, 3-O-galloyl silybin A]	96 + 10.5 % of control	84 + 9.3^* % of control	73 + 10.7^* % of control	63 + 8.9^* % of control	52 + 8.1^* % of control	44 + 6.0^* % of control	38 + 5.7^* % of control	33 + 5.1^* % of control	0.35 ± 0.038 ΔOD 405nm	0.46 ± 0.062 ΔOD 405nm	0.58 ± 0.070 ΔOD 405nm	0.67 ± 0.084 ΔOD 405nm	0.83 ± 0.114 ΔOD 405nm	0.97 ± 0.134 ΔOD 405nm	1.12 ± 0.147 ΔOD 405nm	1.26 ± 0.164 ΔOD 405nm	0.23 ± 0.029 ΔOD 405nm	0.40 ± 0.053 ΔOD 405nm	0.55 ± 0.070 ΔOD 405nm	0.86 ± 0.136 ΔOD 405nm	Caspase-9 (ΔOD 405nm) (caspase-9; 125 micro molar): 0.69 ± 0.103 ΔOD 405nm; Caspase-9 (ΔOD 405nm) (caspase-9; 150 micro molar): 0.80 ± 0.124 ΔOD 405nm; Caspase-9 (ΔOD 405nm) (caspase-9; 175 micro molar): 1.19 ± 0.147 ΔOD 405nm; Caspase-9 (ΔOD 405nm) (caspase-9; 200 micro molar): 1.30 ± 0.167 ΔOD 405nm; ACDase activity in cell extract compared to control (Acid ceramidase (ACDase)): markedly inhibited; NSMase activity in comparison with control [1]: considerable increase
